What was measured:
[1] = Crashing upon dilution of DMSO stock in PBS; format: physicochemical
Text: Supplement 11095_2014_1399_MOESM1_ESM.docx, table 14: Table S14. R406 phenylsulfonate salt and free base crashing upon dilution of DMSO stock in PBS | column: Measured Concentration

[2] = Concentration and stability of R406 in cosolvent solution formulation; format: physicochemical
Description: R406 stability in cosolvent solution: Precipitation of R406 in the cosolvent solution causes a drop in concentration after 48 hours of storage at room temperature (Table S3), but there is no loss of purity indicating R406 is chemically stable in the co-solvent solution for 48 hours at room temperature (Figure S4).

retinoblastoma cells = tested on: retinoblastoma cells; set-up: method as in PMID 22237022; details: cited from earlier work
[3] = Storage stability of R406 in murine plasma samples; format: physicochemical, mouse
Description: Stability: The extracted solution stability of R406 from murine plasma or vitreous was assessed at low (41.2nM), medium (370.4 nM), and high (3333.3 nM) concentrations in triplicate at room temperature. Blank murine plasma was spiked with the indicated concentrations of R406 and extracted solutions were stored at room temperature for day 0, and day 2. The short-term stability of R406 in murine plasma or vitreous at -20 °C was assessed at three concentrations in triplicate. Samples were thawed at day 1 and 2. At day 2, protein precipitation was performed and samples treated with internal standard/acetonitrile as described previously: for murine plasma samples, 50 µL of sample was quenched by addition of 100 µL of 5 mg/L OSI-906 (internal standard) in 100% acetonitrile, followed by plate sealing, shaking and centrifuging, transfer of 100 µL of supernatant injection of 10 µL of supernatant onto the LC–MS/MS system; for murine vitreous samples, 5 µL of sample quenched by addition of 45 µL of 5 mg/L OSI-906 (internal standard) in 100% acetonitrile, followed by plate sealing, shaking and centrifuging, transfer of 40 µL of supernatant injection of 10 µL of supernatant onto the LC–MS/MS system. Long term stability of R406 in murine plasma or vitreous at −80 °C was assessed. Unextracted spiked murine plasma or vitreous at low, medium, and high levels was frozen at −80 °C for 0, 7, and 14 days. Samples were thawed immediately extracted with acetonitrile/OSI-906, and quantitated. All samples were analyzed in triplicates.

[4] = Storage stability of R406 in murine plasma samples; format: physicochemical, mouse; details: murine plasma at -20°C, thawed on Day 3, injected at Day 3
[5] = Concentration and stability of R406 in castor oil and castor oil emulsion; format: physicochemical
Description: For oral delivery of R788, the target dose of 25 mg/kg R788 was administered by oral gavage as a 4 mM solution in 0.01 N citrate buffer, pH 6 ([9]). For subconjunctival administration, R788 was prepared at a concentration of 4 mM in 2% PEG-800 and filtered through a 0.22 μm filter prior to use (see Table S1). R788 was also administered subconjunctivally as a suspension at a concentration of 25 mM in 10% 2-hydroxylpropyl-β-cyclodextrin (HPβCD, Sigma-Aldrich). For subconjunctival administration, R406 phenylsulfonate salt was administered at a concentration of 800–900 μM as a cosolvent solution in a formulation of 5% Cremaphor-eL, 0.5% ethanol, 0.2% Tween 80 and 94.3% PBS, filtered through a 0.22 μm filter prior to use (see Table S2). R406 phenylsulfonate salt was also administered subconjunctivally at a dose of 31.4 mM solution in DMSO. R406 free base was administered subconjunctivally at a concentration of 6.5 mM as a 25% castor oil (Sigma-Aldrich) emulsion. This emulsion was prepared by mixing castor oil: ethanol (1:1) solution of R406 (approx. 35 mM), in vacuo evaporation of the ethanol, and centrifugation to remove any excess R406, then emulsifying the R406 oil phase in an aqueous phase comprised of Cremaphor-eL, Tween 80 and PBS (final composition of the emulsion: 25% castor oil, 5% Cremaphor-eL, 0.2% Tween-80, 69.8% PBS) by probe sonication. For intravitreal injection, R788 solution was prepared by filtering a 0.12 mM (120 μM) solution of R788 in saline through a 0.22 μm filter. […] For topical delivery, 25–30 mM suspensions were prepared in 5% HPβCD. R406 or R788 concentration in all formulations was determined by UPLC prior to study (in cases where formulation was filtered before administration, concentration was determined post-filtering) Table I.
An emulsion of 30% castor oil, 5% Cremaphor, 4% T80, 61% PBS was prepared and samples were stored at 4 °C and room temperature (25 °C). Samples were diluted and OD600 for each dilution was measured in triplicate on the day of emulsion preparation (storage time = 0 days) and after 6 days of storage. OD600 was measured using a black Costar clear bottom plate and a Spectramax plate reader.
For storage stability in emulsion, n =4.

[6] = Storage Time = 48 hr, room temperature
[7] = Storage Time = 24 hr, room temperature
[8] = Storage Time = 72 hr, room temperature

Compound: COc1cc(Nc2ncc(F)c(Nc3ccc4c(n3)NC(=O)C(C)(C)O4)n2)cc(OC)c1OC.O=S(=O)(O)c1ccccc1 [R406 phenylsulfonate salt]
- Measured Concentration ([1]; 10 mM DMSO stock diluted 1 in 10 in PBS prior to filtration): 1010 µM
- Measured Concentration ([1]; DMSO stock diluted 1 in 10 in PBS, 0.22 micron filtered): 88 µM
- Measured Concentration ([1]; DMSO stock diluted 1 in 20 in PBS prior to filtration): 559 µM
- Measured Concentration ([1]; DMSO stock diluted 1 in 20 in PBS, 0.22 micron filtered): 98 µM

Compound: COc1cc(Nc2ncc(F)c(Nc3ccc4c(n3)NC(=O)C(C)(C)O4)n2)cc(OC)c1OC [R406]
- Average Concentration in cosolvent formulation ([2]; Initial Concentration, room temperature): 743.6 µM
- Average Concentration in cosolvent formulation [2, 6]: 252.5 µM
- Percentage of Initial Concentration in cosolvent formulation [2, 6]: 34%
- maximum concentration of R406 in solution formulation ([2]; cosolvent solution formulation with FDA approved ophthalmic adjuvants): approximately 900 μM
- time chemically stable in cosolvent solution formulation (no loss of purity) ([2]; room temperature): 48 h
- induction of caspase-mediated cell death of retinoblastoma cells in vitro (retinoblastoma cells): can induce caspase-mediated cell death
- time extracted samples were stable ([3]; extracted from murine plasma, room temperature): at least 48 hours
- Accuracy% ([3]; extracted plasma samples in autosampler for 2 days, injected at Day 3, High Control 3333.3 nM): 94.4%
- Accuracy% ([3]; extracted plasma samples in autosampler for 2 days, injected at Day 3, Low Control 41.2 nM): 97.4%
- Accuracy% ([3]; extracted plasma samples in autosampler for 2 days, injected at Day 3, Middle Control 370.4 nM): 97.6%
- Accuracy% ([3]; murine plasma at -20°C, thawed on Day 2, injected at Day 3, High Control 3333.3 nM): 95.6%
- Accuracy% ([3]; murine plasma at -20°C, thawed on Day 2, injected at Day 3, Low Control 41.2 nM): 109.2%
- Accuracy% ([3]; murine plasma at -20°C, thawed on Day 2, injected at Day 3, Middle Control 370.4 nM): 98.4%
- Accuracy% ([3]; murine plasma at -20°C, thawed on Day 3, injected at Day 3, Middle Control 370.4 nM): 101.5%
- Accuracy% ([3]; murine plasma at -80°C, injected at Day 8, High Control 3333.3 nM): 84.3%
- Accuracy% ([3]; murine plasma at -80°C, injected at Day 8, Low Control 41.2 nM): 87.8%
- Accuracy% ([3]; murine plasma at -80°C, injected at Day 8, Middle Control 370.4 nM): 93.1%
- Accuracy% ([3]; murine plasma at -80°C, injected at Day 15, High Control 3333.3 nM): 89.5%
- Accuracy% ([3]; murine plasma at -80°C, injected at Day 15, Low Control 41.2 nM): 84.8%
- Accuracy% ([3]; murine plasma at -80°C, injected at Day 15, Middle Control 370.4 nM): 84.7%
- time spiked samples were stable ([3]; murine plasma stored at -20°C): at least 72 hours
- time spiked samples were stable ([3]; murine plasma stored at -80°C): ≥ 14 days
- Accuracy% ([4]; High Control 3333.3 nM): 90.3%
- Accuracy% ([4]; Low Control 41.2 nM): 96.1%
- Average Concentration in castor oil emulsion ([5]; Initial Concentration, room temperature, n=4): 12.39 ± 1.21 mM
- time emulsion was stable ([5]; R406 castor oil emulsion, room temperature): 48 h
- Average Concentration in castor oil emulsion [5, 7]: 11.03 ± 2.09 mM
- Percentage of Initial Concentration in castor oil emulsion [5, 7]: 89.0%
- Average Concentration in castor oil emulsion [5, 6]: 9.78 ± 3.13 mM
- Percentage of Initial Concentration in castor oil emulsion [5, 6]: 78.9%
- Average Concentration in castor oil emulsion [5, 8]: 12.45 ± 1.43 mM
- Percentage of Initial Concentration in castor oil emulsion [5, 8]: 100.5%
- concentration of R406 achieved in emulsion ([5]; castor oil emulsion): 6500 µM
- time stable in castor oil emulsion ([5]; room temperature): at least 72 hours

Reference: PMC4213378, “Pharmacokinetics and Efficacy of the Spleen Tyrosine Kinase Inhibitor R406 after Ocular Delivery for Retinoblastoma” (Pharmaceutical Research, 2014)
